Reference: PubChem BioAssay (NCI)
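Test compounds were applied to cells in 96-well plates for 48 hours at 5 doses. GI50 is the concentration that inhibits growth by half. TGI: concentration producing complete growth inhibition.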

Key:
Experiment in all cases: NCI anticancer screen, dose series, 48 h; in the data active = GI50 below about 0.43 µM; inactive = the rest
UACC-62 melanoma = tested on: UACC-62 melanoma
SK-MEL-5 melanoma = tested on: SK-MEL-5 melanoma
DU-145 prostate = tested on: DU-145 prostate
IGROV1 ovarian = tested on: IGROV1 ovarian
MCF7 breast = tested on: MCF7 breast
NCI-H226 lung = tested on: NCI-H226 lung
TK-10 renal = tested on: TK-10 renal
NCI-H522 lung = tested on: NCI-H522 lung
PC-3 prostate = tested on: PC-3 prostate
OVCAR-8 ovarian = tested on: OVCAR-8 ovarian
HCT-116 colon = tested on: HCT-116 colon
A498 renal = tested on: A498 renal
SW-620 colon = tested on: SW-620 colon
SF-295 CNS = tested on: SF-295 CNS
LOX IMVI melanoma = tested on: LOX IMVI melanoma
MDA-MB-435 = tested on: MDA-MB-435
CCRF-CEM leukemia = tested on: CCRF-CEM leukemia
SNB-19 CNS = tested on: SNB-19 CNS
EKVX NSCLC = tested on: EKVX NSCLC
SK-MEL-2 melanoma = tested on: SK-MEL-2 melanoma
MDA-MB-231 breast = tested on: MDA-MB-231 breast
RXF 393 renal = tested on: RXF 393 renal
K-562 leukemia = tested on: K-562 leukemia
HOP-92 NSCLC = tested on: HOP-92 NSCLC
M14 melanoma = tested on: M14 melanoma
OVCAR-3 ovarian = tested on: OVCAR-3 ovarian
NCI/ADR-RES ovarian = tested on: NCI/ADR-RES ovarian
SR leukemia = tested on: SR leukemia
786-0 renal = tested on: 786-0 renal
UACC-257 melanoma = tested on: UACC-257 melanoma
T-47D breast = tested on: T-47D breast
RPMI-8226 leukemia = tested on: RPMI-8226 leukemia
UO-31 renal = tested on: UO-31 renal
HL-60(TB) leukemia = tested on: HL-60(TB) leukemia
CAKI-1 renal = tested on: CAKI-1 renal
OVCAR-4 ovarian = tested on: OVCAR-4 ovarian
SF-268 CNS = tested on: SF-268 CNS
HCC-2998 colon = tested on: HCC-2998 colon
OVCAR-5 ovarian = tested on: OVCAR-5 ovarian
HS 578T breast = tested on: HS 578T breast
MOLT-4 leukemia = tested on: MOLT-4 leukemia
BT-549 breast = tested on: BT-549 breast
COLO 205 colon = tested on: COLO 205 colon
SN12C renal = tested on: SN12C renal
SNB-75 CNS = tested on: SNB-75 CNS
NCI-H23 lung = tested on: NCI-H23 lung
A549 NSCLC = tested on: A549 NSCLC
HCT-15 colon = tested on: HCT-15 colon
MALME-3M melanoma = tested on: MALME-3M melanoma
KM12 colon = tested on: KM12 colon
SF-539 CNS = tested on: SF-539 CNS
SK-MEL-28 melanoma = tested on: SK-MEL-28 melanoma
ACHN renal = tested on: ACHN renal
NCI-H460 lung = tested on: NCI-H460 lung
SK-OV-3 ovarian = tested on: SK-OV-3 ovarian
HOP-62 NSCLC = tested on: HOP-62 NSCLC
MDA-MB-468 breast = tested on: MDA-MB-468 breast
U251 CNS = tested on: U251 CNS
HT29 colon = tested on: HT29 colon

CC12OOC(C)(OO1)C2CCC(=O)NCCCNc1ccnc2cc(Cl)ccc12 (stereo not drawn)
8.63 µM: TGI (HL-60(TB) leukemia)
16.2 µM: TGI (MDA-MB-435)
6.22 µM: TGI (ACHN renal)
8.71 µM: TGI (SR leukemia)
6.07 µM: TGI (CAKI-1 renal)
13.4 µM: TGI (T-47D breast)
5.85 µM: TGI (LOX IMVI melanoma)
10.1 µM: TGI (K-562 leukemia)
14.5 µM: TGI (TK-10 renal)
9.17 µM: TGI (HCT-15 colon)
5.83 µM: TGI (OVCAR-3 ovarian)
5.59 µM: TGI (NCI-H522 lung)
6.87 µM: TGI (HOP-92 NSCLC)
7.47 µM: TGI (HT29 colon)
9.56 µM: TGI (RXF 393 renal)
14.1 µM: TGI (CCRF-CEM leukemia)
6.52 µM: TGI (DU-145 prostate)
7.99 µM: TGI (EKVX NSCLC)
17.6 µM: TGI (HCT-116 colon)
inactive: GI50 (UACC-62 melanoma) 12.6 µM | GI50 (SK-MEL-5 melanoma) > 20 µM | GI50 (DU-145 prostate) 3.58 µM | GI50 (IGROV1 ovarian) 7.07 µM | GI50 (MCF7 breast) 8.11 µM | GI50 (NCI-H226 lung) > 20 µM | GI50 (TK-10 renal) 4.62 µM | GI50 (NCI-H522 lung) 2.66 µM | GI50 (PC-3 prostate) > 20 µM | GI50 (OVCAR-8 ovarian) > 20 µM | GI50 (HCT-116 colon) 5.56 µM | GI50 (A498 renal) > 20 µM | GI50 (SW-620 colon) 4.3 µM | GI50 (SF-295 CNS) > 20 µM | GI50 (LOX IMVI melanoma) 3.06 µM | GI50 (MDA-MB-435) 4.84 µM | GI50 (CCRF-CEM leukemia) 4.51 µM | GI50 (SNB-19 CNS) > 20 µM | GI50 (EKVX NSCLC) 3.8 µM | GI50 (SK-MEL-2 melanoma) > 20 µM | GI50 (MDA-MB-231 breast) 8.26 µM | GI50 (RXF 393 renal) 3.69 µM | GI50 (K-562 leukemia) 4.28 µM | GI50 (HOP-92 NSCLC) 3.34 µM | GI50 (M14 melanoma) 3.66 µM | GI50 (OVCAR-3 ovarian) 2.97 µM | GI50 (NCI/ADR-RES ovarian) > 20 µM | GI50 (SR leukemia) 3.88 µM | GI50 (786-0 renal) 3.5 µM | GI50 (UACC-257 melanoma) 9.4 µM | GI50 (T-47D breast) 4.35 µM | GI50 (RPMI-8226 leukemia) 9.51 µM | GI50 (UO-31 renal) 3.1 µM | GI50 (HL-60(TB) leukemia) 3.6 µM | GI50 (CAKI-1 renal) 3.31 µM | GI50 (OVCAR-4 ovarian) 3.19 µM | GI50 (SF-268 CNS) > 20 µM | GI50 (HCC-2998 colon) > 20 µM | GI50 (OVCAR-5 ovarian) > 20 µM | GI50 (HS 578T breast) > 20 µM | GI50 (MOLT-4 leukemia) 8.6 µM | GI50 (BT-549 breast) > 20 µM | GI50 (COLO 205 colon) 3.69 µM | GI50 (SN12C renal) > 20 µM | GI50 (SNB-75 CNS) > 20 µM | GI50 (NCI-H23 lung) > 20 µM | GI50 (A549 NSCLC) 4.22 µM | GI50 (HCT-15 colon) 4.03 µM | GI50 (MALME-3M melanoma) 3.35 µM | GI50 (KM12 colon) > 20 µM | GI50 (SF-539 CNS) 11.3 µM | GI50 (SK-MEL-28 melanoma) > 20 µM | GI50 (ACHN renal) 3.45 µM | GI50 (NCI-H460 lung) 12.7 µM | GI50 (SK-OV-3 ovarian) > 20 µM | GI50 (HOP-62 NSCLC) > 20 µM | GI50 (MDA-MB-468 breast) 3.6 µM | GI50 (U251 CNS) > 20 µM | GI50 (HT29 colon) 3.86 µM
> 20 µM: TGI (UACC-62 melanoma) | TGI (SK-MEL-5 melanoma) | TGI (IGROV1 ovarian) | TGI (MCF7 breast) | TGI (NCI-H226 lung) | TGI (PC-3 prostate) | TGI (OVCAR-8 ovarian) | TGI (A498 renal) | TGI (SW-620 colon) | TGI (SF-295 CNS) | TGI (SNB-19 CNS) | TGI (SK-MEL-2 melanoma) | TGI (MDA-MB-231 breast) | TGI (NCI/ADR-RES ovarian) | TGI (UACC-257 melanoma) | TGI (RPMI-8226 leukemia) | TGI (SF-268 CNS) | TGI (HCC-2998 colon) | TGI (OVCAR-5 ovarian) | TGI (HS 578T breast) | TGI (MOLT-4 leukemia) | TGI (BT-549 breast) | TGI (SN12C renal) | TGI (SNB-75 CNS) | TGI (NCI-H23 lung) | TGI (KM12 colon) | TGI (SF-539 CNS) | TGI (SK-MEL-28 melanoma) | TGI (NCI-H460 lung) | TGI (SK-OV-3 ovarian) | TGI (HOP-62 NSCLC) | TGI (U251 CNS)
6.64 µM: TGI (OVCAR-4 ovarian)
7.68 µM: TGI (COLO 205 colon)
7.16 µM: TGI (786-0 renal)
6.31 µM: TGI (MALME-3M melanoma)
5.78 µM: TGI (UO-31 renal)
8.97 µM: TGI (MDA-MB-468 breast)
7.4 µM: TGI (M14 melanoma)
9.86 µM: TGI (A549 NSCLC)
